Experiments:
[1] = Laq-Na dose incorporated in a clear GA product at increased amino acid concentration; assay type: physicochemical
Method: To 6.015 g of Solution C additional amounts of Laq-Na were added drop by drop at stirring at RT. The solutions obtained were clear at 2-8° C. and at RT at Laq-Na concentrations 1.28, 1.49, 1.75 mg/mL.

[2] = in vivo; cited from earlier work
[3] = Saturated solution of laquinimod acid in 0.1 M PBS; assay type: physicochemical; details: 0.1 M PBS pH 7.4, RT
Method: A saturated solution of laquinimod acid […] was prepared by dissolving of 4.2283 g of Laq-acid in 0.1 M PBS (pH 7.4, 700 mL) for 3.5 h at RT. After decantation of the suspension the clear upper part was filtered through a paper (Whatman) filter. This clear, filtered solution contained about 1.5 mg/mL of laquinimod acid (Solution A).

[4] = pH optimum for stability and solubility; assay type: physicochemical
Text: Developing formulations containing laquinimod and GA is particularly difficult because laquinimod and GA have different pH optimums in terms of stability and solubility and because of undesired effects, mainly gelation or the formation of turbid formulations in the presence of various buffers, solvents and surface active agents.

[5] = system: acute experimental autoimmune encephalomyelitis (aEAE) model; details: in vivo; cited from earlier work
multiple sclerosis (MS) = details: cited from earlier work

In the case of `CCN(C(=O)c1c(O)c2c(Cl)cccc2n(C)c1=O)c1ccccc1` [Laquinimod sodium], the “Laq-Na possible to incorporate” value ([1]; glycine 0.6 mg/mL) is reported as 1.05 to 1.07 mg/mL, the “Laq-Na possible to incorporate” value ([1]; glycine 4.2 mg/mL) is reported as 1.51 mg/mL and the “Laq-Na possible to incorporate” value ([1]; lysine 1.39 mg/mL) is reported as 1.06 to 1.09 mg/mL. For the same molecule, the “Laq-Na possible to incorporate” value ([1]; lysine 3.38 mg/mL) was 1.88 mg/mL, the “Laq-Na possible to incorporate” value ([1]; proline 0.9 mg/mL) was 1.06 to 1.09 mg/mL and the “Laq-Na possible to incorporate” value ([1]; proline 2.45 mg/mL) was 1.55 mg/mL. For the same molecule, the Oral bioavailability [2] was “high”.

For `CCN(C(=O)c1c(O)c2c(Cl)cccc2n(C)c1=O)c1ccccc1` [Laquinimod, N-ethyl-N-phenyl-1,2-dihydro-4-hydroxy-5-chloro-1-methyl-2-oxoquinoline-3-carboxamide], the “Laquinimod acid in the clear filtered saturated solution” value [3] is listed as “about 1.5 mg/mL”, the “Solubility and stability versus pH” value [4] is listed as “more soluble and stable in alkaline media” and the “Efficacy in aEAE model” value [5] is listed as “effective”. The “Development of active MRI lesions” value (multiple sclerosis (MS); relapsing MS) was “reduce development of active MRI lesions”.

For “L-glutamic acid polymer with L-alanine, L-lysine and L-tyrosine, acetate (salt) [Glatiramer acetate]”, the “Relapse rates, progression of disability, new MRI lesions” value (multiple sclerosis (MS); daily subcutaneous injections, 20 mg/injection) is given as “reduce relapse rates” and the “Efficacy in treating multiple sclerosis” value (multiple sclerosis (MS); in vivo) is given as “effective”.

Source: patent publication US20170028013A1 (Teva Pharmaceutical Industries, Ltd., priority 2015, published 2017)
